Experimental data: PubChem BioAssay (NCI)
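Cells were grown in 96-well plates and exposed to each compound for 48 hours at five concentrations; endpoints were interpolated linearly between bracketing concentrations, or set to the highest concentration if not reached. TGI: total growth inhibition.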

What was measured:
Experiment in all cases: inhibition of tumour cell growth, NCI panel, 48 h
HCT-116 colon = test system: HCT-116 colon
UO-31 renal = test system: UO-31 renal
SK-OV-3 ovarian = test system: SK-OV-3 ovarian
SN12C renal = test system: SN12C renal
SF-539 CNS = test system: SF-539 CNS
MOLT-4 leukemia = test system: MOLT-4 leukemia
SNB-75 CNS = test system: SNB-75 CNS
786-0 renal = test system: 786-0 renal
M14 melanoma = test system: M14 melanoma
KM12 colon = test system: KM12 colon
SF-268 CNS = test system: SF-268 CNS
HCT-15 colon = test system: HCT-15 colon
SW-620 colon = test system: SW-620 colon
COLO 205 colon = test system: COLO 205 colon
HCC-2998 colon = test system: HCC-2998 colon
RPMI-8226 leukemia = test system: RPMI-8226 leukemia
OVCAR-5 ovarian = test system: OVCAR-5 ovarian
T-47D breast = test system: T-47D breast
MDA-MB-435 = test system: MDA-MB-435
SR leukemia = test system: SR leukemia

SMILES	TGI (HCT-116 colon) [µM]	TGI (UO-31 renal) [µM]	TGI (SK-OV-3 ovarian) [µM]	TGI (SN12C renal) [µM]	TGI (SF-539 CNS) [µM]	TGI (MOLT-4 leukemia) [µM]	TGI (SNB-75 CNS) [µM]	TGI (786-0 renal) [µM]	TGI (M14 melanoma) [µM]	TGI (KM12 colon) [µM]	TGI (SF-268 CNS) [µM]	TGI (HCT-15 colon) [µM]	TGI (SW-620 colon) [µM]	TGI (COLO 205 colon) [µM]	TGI (HCC-2998 colon) [µM]	TGI (RPMI-8226 leukemia) [µM]	TGI (OVCAR-5 ovarian) [µM]	TGI (T-47D breast) [µM]	TGI (MDA-MB-435) [µM]	TGI (SR leukemia) [nM]
CCOP12(OCC)NC(=O)OC1(C(F)(F)F)c1ccccc1O2 (stereo not given)	> 100	> 100	> 100	> 100	> 100	> 100	> 100	> 100	> 100	> 100	> 100	> 100								
O=c1c2ccccc2nc2n1-c1ccccc1SC2	> 100	> 100	> 100	> 100	> 100	75.3	56.2	> 100	> 100	> 100	> 100	> 100	> 100	> 100	> 100	71.9	> 100			
O=C(c1nc2ccccc2[nH]c1=O)C(O)c1ccco1 (stereo not given)	> 100	> 100	> 100	> 100	> 100	> 100	> 100	> 100	> 100	> 100	> 100	> 100	> 100	> 100	> 100	> 100	> 100			
C=CCN1COc2c(cc3c4c(cccc24)C(=O)O3)C1	36.7	40.8	> 100	35.5		64.9	77.6	39.1	50.1	> 100	> 100	50	62.7	33.1	> 100	97.1	> 100			
O=C(CCCN1CCC2(CC1)CC(=O)N(N1CCOCC1)C2=O)c1ccc(F)cc1	> 100	> 100	> 100	> 100	> 100	> 100	> 100	> 100	> 100	> 100	> 100	> 100	> 100	> 100		> 100	> 100	> 100	> 100	
CCOC(=O)C1(C(=O)OCC)C[C@@H](C)[C@@H](O)C1	> 100	> 100	> 100	> 100	> 100	> 100	> 100	> 100	> 100	> 100	> 100	> 100	> 100	> 100		> 100	> 100		> 100	> 100000
CCCN(CCC)C(=S)N/N=C/c1ccccn1	1.58	4	28.6	0.678	0.734		0.413	1.07	0.281	16.1		16.8	28.6	0.509	19.6	0.566	21.4		18.8	247
